According to patent US7772255B2, “Method of treating tumors with azaxanthones” (Supratek Pharma, Inc., priority 2005, dated 2010):

What was measured:
[1] = test system: metastatic (Stage III-Stage IV) breast cancer; assay: Amlexanox monotherapy in advanced metastatic breast cancer resistant to prior chemotherapy (Example 8); type: in vivo, human; conditions: 500 mg orally twice daily; baseline until nine months after administration and follow up
Experimental: In this study 44 women patients with metastatic (Stage III-Stage IV) breast cancer who have relapsed following prior cytotoxic chemotherapy regiments containing anthracyclines and/or taxanes are treated by administering 500 mg amlexanox twice daily with two amlexanox 250 mg tablets prepared in Example 3 taken twice daily orally as outpatients. This treatment is carried out for determining the overall (complete and partial) response rate. In this group, the stable disease rate of patients treated with amlexanox is determined. In addition, in each of the treated patients, the time to disease progression is also determined. The results of this study are compared to untreated patients with metastatic (Stage III-Stage IV) breast cancer who have relapsed following the same prior cytotoxic chemotherapy regiment. […] The patients are evaluated by standard WHO and/or RECIST criteria for response and disease status at six week intervals. […] All of the patients during the evaluation period are evaluated by the measurement of the tumors, survival and determination of any progression of the disease in the patient. Stability is measured during each evaluation to determine if there is any increase in the size and amount of tumors from the proceeding period and if there is no subsequent appearance of any other malignancies in the patient. […]

[2] = test system: colorectal cancer; assay: Amlexanox in combination with irinotecan in colorectal cancer, first-line (Example 9); type: in vivo, human; conditions: amlexanox tablets orally plus irinotecan 350 mg/m^2 i.v. every 3 weeks, versus irinotecan alone
Experimental: In this open label randomized multicenter study 150 patients with colorectal cancer who have tumors that cannot be completely removed by surgery are treated by administering irinotecan alone and 150 patients, with colorectal cancer who have tumors that cannot be completely removed by surgery, are treated with combination of irinotecan and 500 mg amlexanox daily with two amlexanox 250 mg tablets, prepared in Example 3, taken twice daily orally to provide a daily dose of […] of amlexanox. Irinotecan was administered to all of the patients at a dose of 350 mg/m^2 once every 3 weeks intravenously during the course of this study. […] In addition, in each of the treated patients, duration of overall response, time to overall response, duration of progression-free survival, overall clinical benefit rate, overall survival rate and quality of life are determined. […] The patients are evaluated by standard WHO and/or RECIST criteria for response and disease status at six week intervals. […] All of the patients during the evaluation period are evaluated by the measurement of the tumors, survival and determination of any progression of the disease in the patient. Stability is measured during each evaluation to determine if there is any increase in the size and amount of tumors from the proceeding period and if there is no subsequent appearance of any other malignancies in the patient. […]

CC(C)c1ccc2oc3nc(N)c(C(=O)O)cc3c(=O)c2c1 [Amlexanox, 2-amino-7-isopropyl-1-azaxanthone-3-carboxylic acid]
percentage of patients with no progression of the disease by WHO and/or RECIST criteria, compared to the non-treated group [1]: greater percentage of the patients in the group of patients treated with the amlexanox show no progression of the disease
percentage of patients with beneficial results (overall response rate, progression-free survival, overall survival etc.) [2]: greater percentage of the patients in the group of patients treated with the amlexanox show beneficial results
